Measurements as given in the SangsterLogP compilation.

assay: method code SF-TN, from DOI: 10.1007/bf00773207

logP | SMILES
5.37 | O=C(O)c1ccc(Cl)cc1Nc1ccc(I)cc1
4.05 | O=C(O)c1ccc(Cl)cc1Nc1cccc([N+](=O)[O-])c1
4.32 | COc1ccccc1Nc1cc(Cl)ccc1C(=O)O
3.68 | COc1ccc(Nc2ccccc2C(=O)O)cc1
4.41 | COc1ccc(Nc2cc(Cl)ccc2C(=O)O)cc1
5.43 | Cc1ccc(Nc2cc(Cl)ccc2C(=O)O)cc1C
5.16 | O=C(O)c1ccc(Cl)cc1Nc1cccc(Br)c1
4.81 | Cc1ccc(Nc2cc(Cl)ccc2C(=O)O)cc1
4.67 | O=C(O)c1ccc(Cl)cc1Nc1ccccc1Cl
4.25 | O=C(O)c1ccc(Cl)cc1Nc1ccccc1
5 | O=C(O)c1ccc(Cl)cc1Nc1cccc(Cl)c1
4.01 | Cc1ccccc1Nc1ccccc1C(=O)O
3.52 | O=C(O)c1ccccc1Nc1ccccc1
4.73 | Cc1ccccc1Nc1cc(Cl)ccc1C(=O)O
3.6 | COc1ccccc1Nc1ccccc1C(=O)O
4.97 | O=C(O)c1ccc(Cl)cc1Nc1ccc(Cl)cc1
4.04 | O=C(O)c1ccc(Cl)cc1Nc1ccc([N+](=O)[O-])cc1
4.09 | Cc1ccc(Nc2ccccc2C(=O)O)cc1
5.48 | Cc1cc(C)cc(Nc2cc(Cl)ccc2C(=O)O)c1
4.24 | O=C(O)c1ccccc1Nc1ccc(Cl)cc1
3.94 | O=C(O)c1ccccc1Nc1ccccc1Cl
